Laboratory results as given in patent publication US9296734B2 (AMGEN INC., priority 2013, dated 2016).
Where two headings read alike, the source gives them in different places.

Legend:
[1] = biological target: Beta Secretase enzyme (BACE) (Homo sapiens (Human), UniProt P56817); assay: In vitro enzymatic BACE FRET assay; format: biochemical; details: read-out: BACE 1 FRET assay IC50
Method: In Vitro Enzymatic BACE FRET (Fluorescence Resonance Energy Transfer) Assay (Enzyme Assay Data in the Example Table I)
The assay buffer used in this screen is 0.05 M acetate, pH 4.2, 10% DMSO final, 100 uM genapol (which is a nonionic detergent, below its Critical Micelle Concentration). […] This assay is effectively started by the addition of FRET substrate (50 nM) and the combination is incubated for one hour. The FRET assay is terminated with by addition of Tris buffer, which raises the pH to neutrality, and the fluorescence is determined. The FRET substrate is a peptide with commercially available fluorophore and quencher, on opposite sides of the BACE cleavage site.

[2] = tested on: Aβ40 in conditioned medium of cells stably expressing Amyloid Precursor Protein (APP); assay: In vitro BACE cell-based assay (Aβ40 sandwich ELISA); details: Homo sapiens
Method: In Vitro BACE Cell-Based Assay
The cell-based assay measures inhibition or reduction of Aβ40 in conditioned medium of test compound treated cells expressing amyloid precursor protein.
Cells stably expressing Amyloid Precursor Protein (APP) were plated at a density of 40K cells/well in 96 well plates (Costar). The cells were cultivated for 24 hours at 37° C. and 5% CO2 in DMEM supplemented with 10% FBS. The test compounds were then added to cells in 10-point dose response concentrations with the starting concentration being either 100 μM or 10 μM. The compounds were diluted from stock solutions in DMSO and the final DMSO concentration of the test compounds on cells was 0.1%. After 24 h of incubation with the test compounds the supernatant conditioned media was collected and the Aβ 40 levels were determined using a sandwich ELISA. The IC50 of the compound was calculated from the percent of control or percent inhibition of Aβ 40 as a function of the concentration of the test compound.
The sandwich ELISA to detect Aβ 40 was performed in 96 well microtiter plates, which were pre-treated with goat anti-rabbit IgG (Pierce). The capture and detecting antibody pair that were used to detect Aβ 40 from cell supernatants were affinity purified pAb40 (Biosource) and biotinylated 6E10 (Signet Labs Inc.), respectively. The optimal concentration for the pAb40 antibody was 3 μg/ml in Superblock/TBS (Pierce) that was supplemented with 0.05% Tween 20 (Sigma).
Cellular supernatants were incubated with the capture antibody for 3 h at 4° C., followed by 3 wash steps in TBS-tween (0.05%). The detecting antibody incubation was for 2 h at 4° C., again followed by the wash steps as described previously. The final readout of the ELISA is Time-Resolved Fluorescence (counts per minute) using Delfia reagents Streptavidin-Europium and Enhancement solutions (Perkin Elmer) and the Victor 2 multilabel counter (Perkin Elmer).

Cathepsin D (Cat D) = Cathepsin D (Cat D) (Homo sapiens (Human), UniProt P07339); assay: In vitro enzymatic Cathepsin D (Cat D) FRET assay; format: biochemical; details: read-out: CatD IC50
Method in brief: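 CHO-expressed recombinant Cat D cleaves a fluorophore/quencher FRET peptide (20 nM) in 0.05 M citrate pH 3.5, 5 mM CHAPS, 10% DMSO final, over 1 h. Tris addition neutralizes pH to stop the reaction; fluorescence read at excitation 500 nm, emission 580 nm.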

[3] = HEK293, average IC50, HEK cells, read-out: HEK cell assay IC50
[4] = HEK293, read-out: HEK cell assay IC50
[5] = average IC50, BACE enzyme assay
[6] = HEK293, average IC50, HEK cell assay, read-out: HEK cell assay IC50
[7] = average IC50, cathepsin D enzyme assay

Sequence of Beta Secretase enzyme (BACE) (P56817 46-501): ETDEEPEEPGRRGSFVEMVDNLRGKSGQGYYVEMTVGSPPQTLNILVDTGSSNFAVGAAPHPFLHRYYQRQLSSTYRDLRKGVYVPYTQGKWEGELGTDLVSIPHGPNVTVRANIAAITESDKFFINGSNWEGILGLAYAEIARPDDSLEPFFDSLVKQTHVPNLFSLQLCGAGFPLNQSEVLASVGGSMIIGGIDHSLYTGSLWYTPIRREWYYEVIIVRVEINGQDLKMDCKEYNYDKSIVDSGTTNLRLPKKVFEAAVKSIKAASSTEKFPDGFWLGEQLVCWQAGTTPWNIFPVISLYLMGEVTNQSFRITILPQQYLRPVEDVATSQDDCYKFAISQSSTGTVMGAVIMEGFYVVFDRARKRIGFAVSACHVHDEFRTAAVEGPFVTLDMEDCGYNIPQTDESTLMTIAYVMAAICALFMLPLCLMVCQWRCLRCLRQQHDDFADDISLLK
Sequence of Cathepsin D (Cat D) (P07339 65-412, species assumed): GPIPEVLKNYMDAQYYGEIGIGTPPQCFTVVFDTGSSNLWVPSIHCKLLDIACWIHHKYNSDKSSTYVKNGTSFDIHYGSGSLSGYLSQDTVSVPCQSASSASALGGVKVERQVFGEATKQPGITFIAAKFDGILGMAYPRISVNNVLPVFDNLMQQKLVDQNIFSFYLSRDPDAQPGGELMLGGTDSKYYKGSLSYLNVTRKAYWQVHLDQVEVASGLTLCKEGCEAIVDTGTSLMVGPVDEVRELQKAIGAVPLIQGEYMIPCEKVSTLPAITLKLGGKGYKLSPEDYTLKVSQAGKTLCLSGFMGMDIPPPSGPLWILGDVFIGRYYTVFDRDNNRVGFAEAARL

`COc1cnc2c(Nc3ccc(F)c([C@]4(CF)C[C@@H](C(F)(F)F)OC(N)=N4)c3)nccc2n1` (racemic) [Example 9, (4S,6S)-4-(2-fluoro-5-((2-methoxypyrido[3,4-b]pyrazin-5-yl)amino)phenyl)-4-(fluoromethyl)-6-(trifluoromethyl)-5,6-dihydro-4H-1,3-oxazin-2-amine] showed an IC50 ([1]; average IC50) of 0.05 µM, an IC50 [2, 3] of 0.372 µM and an IC50 (Cathepsin D (Cat D); average IC50) of over 400 µM.

For `Cc1cc(Cl)cnc1C(=O)Nc1ccc(F)c([C@]2(CF)C[C@@H](C(F)(F)F)OC(N)=N2)c1` [Example 4, N-(3-((4S,6S)-2-amino-4-(fluoromethyl)-6-(trifluoromethyl)-5,6-dihydro-4H-1,3-oxazin-4-yl)-4-fluorophenyl)-5-chloro-3-methylpicolinamide], the IC50 ([1]; average IC50) was 0.008 µM, the IC50 [2, 4] was 0.031 µM and the IC50 (Cathepsin D (Cat D); average IC50) was over 400 µM.

In the case of `NC1=N[C@](CF)(c2cc(NC(=O)c3ccc(OCC(F)(F)F)cn3)ccc2F)C[C@@H](C(F)(F)F)O1` [Example 5, N-(3-((4S,6S)-2-amino-4-(fluoromethyl)-6-(trifluoromethyl)-5,6-dihydro-4H-1,3-oxazin-4-yl)-4-fluorophenyl)-5-(2,2,2-trifluoroethoxy)picolinamide], the IC50 ([1]; average IC50) is reported as 0.043 µM, the IC50 [2, 3] is reported as 0.263 µM and the IC50 (Cathepsin D (Cat D); average IC50) is reported as over 400 µM.

For `Cc1c(C(=O)Nc2ccc(F)c([C@]3(CF)C[C@@H](C(F)(F)F)OC(N)=N3)c2)nc2ccc(Cl)cn12` [Example 6, N-(3-((4S,6S)-2-amino-4-(fluoromethyl)-6-(trifluoromethyl)-5,6-dihydro-4H-1,3-oxazin-4-yl)-4-fluorophenyl)-6-chloro-3-methylimidazo[1,2-a]pyridine-2-carboxamide], the IC50 ([1]; average IC50) was 0.036 µM, the IC50 [2, 3] was 0.0522 µM and the IC50 (Cathepsin D (Cat D); average IC50) was over 400 µM.

`Cc1c(C(=O)Nc2ccc(F)c([C@]3(CF)C[C@@H](C(F)(F)F)OC(N)=N3)c2)nc2ccccn12` [Example 7, N-(3-((4S,6S)-2-amino-4-(fluoromethyl)-6-(trifluoromethyl)-5,6-dihydro-4H-1,3-oxazin-4-yl)-4-fluorophenyl)-3-methylimidazo[1,2-a]pyridine-2-carboxamide] was tested, and the IC50 ([1]; average IC50) was 1.52 µM, the IC50 [2, 3] was 0.888 µM and the IC50 (Cathepsin D (Cat D); average IC50) was over 400 µM.

Compound `NC1=N[C@](CF)(c2cc(Nc3nccc4cc(Cl)cnc34)ccc2F)C[C@@H](C(F)(F)F)O1` [Example 8, (4S,6S)-4-(5-((3-chloro-1,7-naphthyridin-8-yl)amino)-2-fluorophenyl)-4-(fluoromethyl)-6-(trifluoromethyl)-5,6-dihydro-4H-1,3-oxazin-2-amine] has an IC50 ([1]; average IC50) of 0.018 µM, an IC50 [2, 3] of 0.203 µM and an IC50 (Cathepsin D (Cat D); average IC50) of over 400 µM.

Work on `NC1=N[C@](CF)(c2cc(Nc3ncccc3F)ccc2F)C[C@@H](C(F)(F)F)O1` [Example 14, (4S,6S)-4-(2-fluoro-5-((3-fluoropyridin-2-yl)-amino)phenyl)-4-(fluoromethyl)-6-(trifluoromethyl)-5,6-dihydro-4H-1,3-oxazin-2-amine] yielded an IC50 [1, 5] of 0.574 µM, an IC50 [2, 6] of 0.758 µM and an IC50 (Cathepsin D (Cat D); [7]) of 879 µM.

`NC1=N[C@](CF)(c2cc(Nc3ccnc(Br)c3)ccc2F)C[C@@H](C(F)(F)F)O1` [Example 17, (4S,6S)-4-(5-((2-bromopyridin-4-yl)amino)-2-fluorophenyl)-4-(fluoromethyl)-6-(trifluoromethyl)-5,6-dihydro-4H-1,3-oxazin-2-amine] was tested, and the IC50 [1, 5] was 6.49 µM, the IC50 [2, 6] was 4.34 µM and the IC50 (Cathepsin D (Cat D); [7]) was 469 µM.

Work on `NC1=N[C@](CF)(c2cc(Nc3nccc4nc(C(F)(F)F)cnc34)ccc2F)C[C@@H](C(F)(F)F)O1` [Example 18, (4S,6S)-4-(2-fluoro-5-((2-(trifluoromethyl)pyrido[3,4-b]pyrazin-5-yl)amino)phenyl)-4-(fluoromethyl)-6-(trifluoromethyl)-5,6-dihydro-4H-1,3-oxazin-2-amine] yielded an IC50 [1, 5] of 0.118 µM, an IC50 [2, 6] of 0.336 µM and an IC50 (Cathepsin D (Cat D); [7]) of over 14.8 µM.

With `NC1=N[C@](CF)(c2cc(Nc3nccc4cn(C(F)F)nc34)ccc2F)C[C@@H](C(F)(F)F)O1` [Example 20, (4S,6S)-4-(5-((2-(difluoromethyl)-2H-pyrazolo[3,4-c]pyridin-7-yl)amino)-2-fluorophenyl)-4-(fluoromethyl)-6-(trifluoromethyl)-5,6-dihydro-4H-1,3-oxazin-2-amine 2,2,2-trifluoroacetate] the IC50 [1, 5] was 33 µM, the IC50 [2, 4] was 10.6 µM and the IC50 (Cathepsin D (Cat D); [7]) was over 400 µM.

`N#Cc1cnc2c(Nc3ccc(F)c([C@]4(CF)C[C@@H](C(F)(F)F)OC(N)=N4)c3)nccc2c1` [Example 22, 8-((3-((4S,6S)-2-amino-4-(fluoromethyl)-6-(trifluoromethyl)-5,6-dihydro-4H-1,3-oxazin-4-yl)-4-fluorophenyl)amino)-1,7-naphthyridine-3-carbonitrile] showed an IC50 ([1]; average IC50) of 0.021 µM, an IC50 [2, 3] of 0.057 µM and an IC50 (Cathepsin D (Cat D); average IC50) of over 133 µM.

Work on `N#Cc1cc(Nc2ccc(F)c([C@]3(CF)C[C@@H](C(F)(F)F)OC(N)=N3)c2)ccn1` [Example 24, 4-((3-((4S,6S)-2-amino-4-(fluoromethyl)-6-(trifluoromethyl)-5,6-dihydro-4H-1,3-oxazin-4-yl)-4-fluorophenyl)amino)picolinonitrile] yielded an IC50 [1, 5] of 19 µM, an IC50 [2, 6] of 7 µM and an IC50 (Cathepsin D (Cat D); [7]) of 1760 µM.

For `C[C@@]1(c2cc(NC(=O)c3ccc(Cl)cn3)ccc2F)C[C@@H](C(F)(F)F)OC(N)=N1` [Example 26, N-(3-((4S,6S)-2-amino-4-methyl-6-(trifluoromethyl)-5,6-dihydro-4H-1,3-oxazin-4-yl)-4-fluorophenyl)-5-chloropicolinamide], the IC50 ([1]; average IC50) was 0.0123 µM, the IC50 [2, 3] was 0.0049 µM and the IC50 (Cathepsin D (Cat D); average IC50) was over 400 µM.

Compound `COc1cnc(C(=O)Nc2ccc(F)c([C@]3(C)C[C@@H](C(F)(F)F)OC(N)=N3)c2)cn1` [Example 27, N-(3-((4S,6S)-2-amino-4-methyl-6-(trifluoromethyl)-5,6-dihydro-4H-1,3-oxazin-4-yl)-4-fluorophenyl)-5-methoxypyrazine-2-carboxamide] has an IC50 ([1]; average IC50) of 0.03 µM and an IC50 (Cathepsin D (Cat D); average IC50) of over 400 µM.

Compound `C#CCOc1ccc(C(=O)Nc2ccc(F)c([C@]3(C)C[C@@H](C(F)(F)F)OC(N)=N3)c2)nc1` [Example 28, N-(3-((4S,6S)-2-amino-4-methyl-6-(trifluoromethyl)-5,6-dihydro-4H-1,3-oxazin-4-yl)-4-fluorophenyl)-5-(prop-2-yn-1-yloxy)picolinamide] has an IC50 [1, 5] of 0.0176 µM, an IC50 [2, 6] of 0.0093 µM and an IC50 (Cathepsin D (Cat D); [7]) of 666 µM.

`C[C@@]1(c2cc(Nc3nc4ccc(Cl)cc4o3)ccc2F)C[C@@H](C(F)(F)F)OC(N)=N1` [Example 29, N-(3-((4S,6S)-2-amino-4-methyl-6-(trifluoromethyl)-5,6-dihydro-4H-1,3-oxazin-4-yl)-4-fluorophenyl)-6-chlorobenzo[d]oxazol-2-amine] showed an IC50 [1, 5] of over 40 µM, an IC50 [2, 6] of 3.01 µM and an IC50 (Cathepsin D (Cat D); [7]) of 210 µM.

For `C[C@@]1(c2cc(Nc3nc4cc(Cl)ccc4o3)ccc2F)C[C@@H](C(F)(F)F)OC(N)=N1` [Example 30, N-(3-((4S,6S)-2-amino-4-methyl-6-(trifluoromethyl)-5,6-dihydro-4H-1,3-oxazin-4-yl)-4-fluorophenyl)-5-chlorobenzo[d]oxazol-2-amine], the IC50 [1, 5] was 26.8 µM, the IC50 [2, 6] was 2.88 µM and the IC50 (Cathepsin D (Cat D); [7]) was 162 µM.

`NC1=N[C@](CF)(c2cc(NC(=O)c3ncc(Cl)cc3F)ccc2F)C[C@@H](C(F)(F)F)O1` [Example 34, N-(3-((4S,6S)-2-amino-4-(fluoromethyl)-6-(trifluoromethyl)-5,6-dihydro-4H-1,3-oxazin-4-yl)-4-fluorophenyl)-5-chloro-3-fluoropicolinamide] showed an IC50 [1, 5] of 0.051 µM, an IC50 [2, 6] of 0.042 µM and an IC50 (Cathepsin D (Cat D); [7]) of over 400 µM.

`NC1=N[C@](CF)(c2cc(Oc3cc(-c4ccccc4)ccn3)ccc2F)C[C@@H](C(F)(F)F)O1` [Example 102, (4S,6S)-4-(2-fluoro-5-((4-phenylpyridin-2-yl)oxy)phenyl)-4-(fluoromethyl)-6-(trifluoromethyl)-5,6-dihydro-4H-1,3-oxazin-2-amine] showed an IC50 [2, 4] of 2.82 µM and an IC50 (Cathepsin D (Cat D); average IC50) of 114 µM.
